{
  "source": "patent US9187435B2",
  "about": "“Bridged Spiro[2.4]heptane ester derivatives” (Actelion Pharmaceuticals Ltd., priority 2010, dated 2015)",
  "target": "T1, human ALX receptor (Homo sapiens, UniProt P25090)",
  "T1 construct": "expressed in transfected cells; host or cells: HEK293 (HEK293-hALXR-Gα16)",
  "T1 sequence (P25090 1-351)": "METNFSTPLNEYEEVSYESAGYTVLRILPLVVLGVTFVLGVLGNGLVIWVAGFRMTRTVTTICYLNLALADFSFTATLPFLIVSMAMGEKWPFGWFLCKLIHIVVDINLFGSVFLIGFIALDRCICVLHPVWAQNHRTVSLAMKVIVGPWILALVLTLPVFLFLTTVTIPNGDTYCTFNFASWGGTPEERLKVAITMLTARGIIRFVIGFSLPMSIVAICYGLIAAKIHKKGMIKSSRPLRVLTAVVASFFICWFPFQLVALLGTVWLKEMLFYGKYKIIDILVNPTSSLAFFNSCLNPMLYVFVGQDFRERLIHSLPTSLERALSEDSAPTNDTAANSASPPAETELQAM",
  "experiment": "Intracellular calcium measurements (FLIPR) in HEK293-hALXR-Gα16 cells, agonistic activity",
  "type": "cell-based",
  "conditions": "values normalized to WKYMVm 10 nM",
  "experimental": "The ALX receptor and FPRL2 agonistic activities of the compounds of formula (I) are determined in accordance with the following experimental method.\nIntracellular Calcium Measurements:\nCells expressing recombinant human ALX receptor and the G-protein Gα16 (HEK293-hALXR-Gα16) were grown to 80% confluency in Growing Medium (GM). Cells were detached from culture dishes with a cell dissociation buffer (Invitrogen, 13151-014), and collected by centrifugation at 1,000 rpm at rt for 5 min in Assay Buffer (AB) (equal parts of Hank's BSS (Gibco, 14065-049) and DMEM without Phenol Red (Gibco, 11880-028)). After 60 min incubation at 37° C. under 5% CO2 in AB supplemented with 1 μM Fluo-4 (AM) (Invitrogen, F14202), and 20 mM HEPES (Gibco, 15630-056), the cells were washed and resuspended in AB. They were then seeded onto 384-well FLIPR assay plates (Greiner, 781091) at 50,000 cells in 70 μl per well and sedimented by centrifugation at 1,000 rpm for 1 min. Stock solutions of test compounds were made up at a concentration of 10 mM in DMSO, and serially diluted in AB to concentrations required for activation dose response curves. WKYMVm (Phoenix Peptides) was used as a reference agonist. FLIPR384 or FLIPR Tetra instruments (Molecular Devices) were operated according to the manufacturer's standard instructions, adding 4 μl of test compound dissolved at 10 mM in DMSO and diluted prior to the experiment in assay buffer to obtain the desired final concentration. Changes in fluorescence were monitored before and after the addition of test compounds at lex=488 nm and lem=540 nm. Emission peak values above base level after compounds addition were exported after base line subtraction. Values were normalized to high-level control (WKYMVm compound, 10 nM final concentration) after subtraction of the base line value (AB addition).",
  "note": "Counter-ions that a name gives are not always drawn.",
  "data": [
    {"smiles": "O=C(OCCOCCN1CCC(F)(F)C1)[C@H]1[C@H](C(=O)Nc2ccc(Br)nc2)[C@@H]2CC[C@H]1C21CC1", "note": "[Example 75, (1S,2R,3R,4R)-[2-(2-(3,3-Difluoropyrrolidin-1-yl)ethoxy)ethyl 2-((6-bromopyridin-3-yl)carbamoyl)spiro[bicyclo[2.2.1]heptane-7,1′-cyclopropane]-3-carboxylate]]", "values": [
      {"measurement": "EC50", "result": 403, "unit": "nM"}
    ]},
    {"smiles": "Cc1cc(CNC(=O)[C@H]2[C@H](C(=O)OCCN(C)C)[C@H]3CC[C@@H]2C32CC2)no1", "note": "[Example 27, (1S,2R,3R,4R)-[1-Dimethylaminoeth-2-yl 2-(((5-methylisoxazol-3-yl)methyl)carbamoyl)spiro[bicyclo[2.2.1]heptane-7,1′-cyclopropane]-3-carboxylate]]", "values": [
      {"measurement": "EC50", "result": 585, "unit": "nM"}
    ]},
    {"smiles": "O=C(OCCCCN1CCCC1)[C@H]1[C@H](C(=O)Nc2ccc(Br)nc2)[C@@H]2CC[C@H]1C21CC1", "note": "[Example 54, (1S,2R,3R,4R)-[4-(Pyrrolidin-1-yl)butyl 2-((6-bromopyridin-3-yl)carbamoyl)spiro[bicyclo[2.2.1]heptane-7,1′-cyclopropane]-3-carboxylate]]", "values": [
      {"measurement": "EC50", "result": 14.6, "unit": "nM"}
    ]},
    {"smiles": "Cc1cc(CNC(=O)[C@H]2[C@H](C(=O)OCC3(F)CCNCC3)[C@H]3CC[C@@H]2C32CC2)on1", "note": "[Example 51, (1S,2R,3R,4R)-[(4-Fluoro-piperidin-4-yl)methyl 2-(((3-methylisoxazol-5-yl)methyl)carbamoyl)spiro[bicyclo[2.2.1]heptane-7,1′-cyclopropane]-3-carboxylate]]", "values": [
      {"measurement": "EC50", "result": 11.3, "unit": "nM"}
    ]},
    {"smiles": "O=C(Nc1ccc(Br)nc1)C1C(C(=O)OCC2CCNCC2)C2CCC1C21CC1", "note": "[Example 1, (1S,2R,3R,4R)-[Piperidin-4-ylmethyl 2-((6-bromopyridin-3-yl)carbamoyl)spiro[bicyclo[2.2.1]heptane-7,1′-cyclopropane]-3-carboxylate]]", "values": [
      {"measurement": "EC50", "result": 8.1, "unit": "nM"}
    ]},
    {"smiles": "Cc1cc(CNC(=O)[C@H]2[C@H](C(=O)OCC3(F)CCNCC3)[C@H]3CC[C@@H]2C32CC2)no1", "note": "[Example 59, (1S,2R,3R,4R)-[(4-Fluoro-piperidin-4-yl)methyl 2-(((5-methylisoxazol-3-yl)methyl)carbamoyl)spiro[bicyclo[2.2.1]heptane-7,1′-cyclopropane]-3-carboxylate]]", "values": [
      {"measurement": "EC50", "result": 41.4, "unit": "nM"}
    ]},
    {"smiles": "Cc1cc(CNC(=O)[C@H]2[C@H](C(=O)O[C@@H]3CCNC3)[C@H]3CC[C@@H]2C32CC2)no1", "note": "[Example 19, (1S,2R,3R,4R)-[(R)-Pyrrolidin-3-yl 2-(((5-methylisoxazol-3-yl)methyl)carbamoyl)spiro[bicyclo[2.2.1]heptane-7,1′-cyclopropane]-3-carboxylate]hydrochloride]", "values": [
      {"measurement": "EC50", "result": 105, "unit": "nM"}
    ]},
    {"smiles": "NCc1cccc(COC(=O)[C@H]2[C@H](C(=O)Nc3ccc(Br)nc3)[C@@H]3CC[C@H]2C32CC2)c1", "note": "[Example 45, (1S,2R,3R,4R)-[3-(Aminomethyl)benzyl 2-((6-bromopyridin-3-yl)carbamoyl)spiro[bicyclo[2.2.1]heptane-7,1′-cyclopropane]-3-carboxylate]]", "values": [
      {"measurement": "EC50", "result": 9.3, "unit": "nM"}
    ]},
    {"smiles": "CN1C(C)(C)CC(OC(=O)[C@H]2[C@H](C(=O)Nc3ccc(Br)nc3)[C@@H]3CC[C@H]2C32CC2)CC1(C)C", "note": "[Example 8, (1S,2R,3R,4R)-[1,2,2,6,6-Pentamethylpiperidin-4-yl 2-((6-bromopyridin-3-yl)carbamoyl)spiro[bicyclo[2.2.1]heptane-7,1′-cyclopropane]-3-carboxylate]]", "values": [
      {"measurement": "EC50", "result": 753, "unit": "nM"}
    ]},
    {"smiles": "Cc1cc(CNC(=O)[C@H]2[C@H](C(=O)OCCC3CCCNC3)[C@H]3CC[C@@H]2C32CC2)no1", "note": "(stereo partly drawn) [Example 17, (1S,2R,3R,4R)-[2-(Piperidin-3-yl)ethyl 2-(((5-methylisoxazol-3-yl)methyl)carbamoyl)spiro[bicyclo[2.2.1]heptane-7,1′-cyclopropane]-3-carboxylate]hydrochloride]", "values": [
      {"measurement": "EC50", "result": 79.4, "unit": "nM"}
    ]},
    {"smiles": "O=C(OCCOCCN1CCCC1)[C@H]1[C@H](C(=O)Nc2ccc(Br)nc2)[C@@H]2CC[C@H]1C21CC1", "note": "[Example 31, (1S,2R,3R,4R)-[2-(2-(Pyrrolidin-1-yl)ethoxy)ethyl 2-((6-bromopyridin-3-yl)carbamoyl)spiro[bicyclo[2.2.1]heptane-7,1′-cyclopropane]-3-carboxylate]]", "values": [
      {"measurement": "EC50", "result": 2.2, "unit": "nM"}
    ]}
  ]
}
